“Also recorded” adds a separate entry of the source. Read-outs that look alike come from different tables or passages of the source.
Legend:
β-glucuronidase [1] = molecular target: T1, β-glucuronidase (Homo sapiens, UniProt P08236); assay: Inhibition of β-glucuronidase mediated hydrolysis of 4-HPR-O-glucuronide; assay type: biochemical; settings: for IC50: 10% methanol as co-solvent, 4-HPR-O-glucuronide below 184.5 μM
T1 sequence (P08236 23-651): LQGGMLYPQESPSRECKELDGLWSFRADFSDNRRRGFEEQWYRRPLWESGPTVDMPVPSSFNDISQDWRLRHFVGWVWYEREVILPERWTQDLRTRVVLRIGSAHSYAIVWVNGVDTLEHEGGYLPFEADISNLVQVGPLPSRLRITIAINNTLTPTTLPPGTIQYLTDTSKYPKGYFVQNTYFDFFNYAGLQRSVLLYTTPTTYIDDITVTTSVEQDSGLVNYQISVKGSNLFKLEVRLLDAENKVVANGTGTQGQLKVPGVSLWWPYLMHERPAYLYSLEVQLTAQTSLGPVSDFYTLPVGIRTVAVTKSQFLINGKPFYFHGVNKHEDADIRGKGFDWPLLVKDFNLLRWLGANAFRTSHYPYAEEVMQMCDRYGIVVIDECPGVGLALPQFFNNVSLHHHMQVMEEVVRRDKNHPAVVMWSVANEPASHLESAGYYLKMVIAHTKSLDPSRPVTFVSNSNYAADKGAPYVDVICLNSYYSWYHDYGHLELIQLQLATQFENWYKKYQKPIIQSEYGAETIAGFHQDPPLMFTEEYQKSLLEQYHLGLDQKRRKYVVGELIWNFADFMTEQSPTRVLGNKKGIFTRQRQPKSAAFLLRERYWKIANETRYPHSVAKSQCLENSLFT
From the text: Chem. Soc., (1954), 76, 4872-4877.

mRARβ = molecular target: T2, mRARβ (Mus musculus, UniProt P22605); assay: Drug competition with (3H)retinoic acid binding, mRARβ; settings: read-out: percent reduction of binding of the (3H)retinoic acid, mRARβ; 1 μM drug; 5 nM [3H]RA
T2 construct: made in house; host or cells: Spodoptera frugiperda insect cells, baculovirus (whole cell extract)
T2 sequence (P22605 1-448 isoform P22605-3): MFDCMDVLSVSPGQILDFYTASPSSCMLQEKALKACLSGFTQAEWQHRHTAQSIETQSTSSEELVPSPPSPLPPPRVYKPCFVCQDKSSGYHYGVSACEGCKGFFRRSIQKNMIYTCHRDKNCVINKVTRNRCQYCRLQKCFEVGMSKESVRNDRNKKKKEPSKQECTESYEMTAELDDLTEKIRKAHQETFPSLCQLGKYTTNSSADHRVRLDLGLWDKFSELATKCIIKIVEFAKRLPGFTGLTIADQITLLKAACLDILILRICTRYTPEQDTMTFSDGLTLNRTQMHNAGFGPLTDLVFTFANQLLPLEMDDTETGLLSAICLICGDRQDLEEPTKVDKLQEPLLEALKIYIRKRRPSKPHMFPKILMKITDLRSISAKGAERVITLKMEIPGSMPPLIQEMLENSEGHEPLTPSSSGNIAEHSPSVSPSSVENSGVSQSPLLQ

mRARα = molecular target: T3, mRARα (Mus musculus, UniProt P11416); assay: Drug competition with (3H)retinoic acid binding, mRARα; settings: read-out: percent reduction of binding of the (3H)retinoic acid, mRARα
T3 construct: made in house; host or cells: Spodoptera frugiperda insect cells, baculovirus (whole cell extract)
T3 sequence (P11416 1-462): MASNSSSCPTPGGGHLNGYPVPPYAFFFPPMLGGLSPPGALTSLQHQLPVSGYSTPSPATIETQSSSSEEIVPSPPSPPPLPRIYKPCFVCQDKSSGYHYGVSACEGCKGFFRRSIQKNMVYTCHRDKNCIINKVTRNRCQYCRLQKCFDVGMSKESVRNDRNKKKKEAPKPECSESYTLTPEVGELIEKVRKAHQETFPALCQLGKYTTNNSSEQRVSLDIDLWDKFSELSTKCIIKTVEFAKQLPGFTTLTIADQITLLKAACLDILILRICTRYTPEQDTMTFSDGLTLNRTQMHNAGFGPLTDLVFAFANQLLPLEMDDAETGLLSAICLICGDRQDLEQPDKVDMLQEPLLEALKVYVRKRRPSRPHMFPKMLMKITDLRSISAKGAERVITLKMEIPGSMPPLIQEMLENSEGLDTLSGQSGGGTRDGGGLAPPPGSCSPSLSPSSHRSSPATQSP

[2] = Acid stability, 0.1N methanolic HCl at 37° C. for 2 hours; assay type: physicochemical
Method: To determine the stability of the C-glucopyranosiduronate linkage towards acidic conditions, samples of 4-HPR-O-glucuronide, 4-(retinamido)phenyl-C-glucuronide and 4-(retinamido)benzyl-C-glucuronide were treated with 0.1N methanolic HCl at 37° C. for 2 hours.

MCF-7 cells = assay: Growth inhibition of MCF-7 human mammary tumor cells; assay type: cell-based; settings: for IC50: Homo sapiens, MCF7, 168 h, 7 days, read-out: ED50 for growth inhibition of MCF-7 cells; for growth inhibition of MCF-7 cells, in words: comparison of drugs
Method: The antiproliferative activity of the drugs in MCF-7 human mammary tumor cell culture models were determined.
The MCF-7 cells were obtained originally from the Michigan Cancer Foundation. The cells were routinely grown as monolayers in T-25 plastic tissue culture flasks from Falcon, in Oxnard, Calif. containing 5.0 mL of B-10 medium consisting of Minimum Essential Medium (MEM, Earle's Base) supplemented with 1.0 mM MEM non-essential amino acid, 2.0 mM 1-glutamine,10% fetal bovine serum (FBS), and antibiotics. Culture conditions included a humidified atmosphere of 5% CO2 at 37° C. One-half of the medium was replenished twice a week. Cells were harvested by trypsinization upon confluency. All variables were evaluated in triplicate.
For the growth inhibition assay the MCF-7 cells were plated in 24-well plates at a density of 1.5×10^4 cells/cm^2. […] Control cultures were treated with an equivalent volume of absolute ethanol. On day 7 the cells were harvested by trypsinization and viability was assessed by trypan blue exclusion according to Ueda, H. et al. Cancer 1980, 46, 2203-2209. Total cell counts were obtained using a hemocytometer as well as a the Coulter Counter.

[3] = test system: retinoic acid receptors α, β and γ; assay: Competition with retinoic acid for retinoic acid receptors (RAR α, β, γ), overall; assay type: binding; settings: 1 μM drug
mRARγ = molecular target: T4, mRARγ (Mus musculus, UniProt P18911); assay: Drug competition with (3H)retinoic acid binding, mRARγ; settings: read-out: percent reduction of binding of the (3H)retinoic acid, mRARγ; 1 μM drug; 5 nM [3H]RA
T4 construct: made in house; host or cells: Spodoptera frugiperda insect cells, baculovirus (whole cell extract)
T4 sequence (P18911 1-458): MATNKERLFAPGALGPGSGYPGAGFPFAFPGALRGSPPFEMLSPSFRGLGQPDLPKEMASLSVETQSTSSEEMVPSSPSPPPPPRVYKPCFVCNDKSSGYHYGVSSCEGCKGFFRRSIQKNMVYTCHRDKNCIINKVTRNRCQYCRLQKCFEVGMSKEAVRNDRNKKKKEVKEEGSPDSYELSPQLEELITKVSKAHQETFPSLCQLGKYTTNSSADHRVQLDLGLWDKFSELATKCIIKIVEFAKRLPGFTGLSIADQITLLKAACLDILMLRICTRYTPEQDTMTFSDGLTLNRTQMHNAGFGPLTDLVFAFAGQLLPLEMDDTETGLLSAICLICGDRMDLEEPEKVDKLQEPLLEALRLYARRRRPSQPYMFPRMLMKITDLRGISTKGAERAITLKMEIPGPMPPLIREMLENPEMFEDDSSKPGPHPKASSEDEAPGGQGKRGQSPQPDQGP

cancer = settings: literature; cited from earlier work
β-glucuronidase [4] = molecular target: T1, β-glucuronidase; assay: Stability toward β-glucuronidase mediated hydrolysis; assay type: in vitro ADME; settings: within twenty minutes
Method: Similarly 1-(D-glucopyranosyluronosyl) retinamide and RAG were evaluated for their stability toward β-glucuronidase medicated hydrolysis under the same conditions as described above.

[5] = Acid stability, 0.1N HCl at 37° C. for two hours; assay type: physicochemical; settings: HPLC
Method: Similarly, 1-(D-glucopyranosyluronosyl) retinamide and RAG were treated with 0.1N HCl at 37° C. for two hours.

[6] = molecular target: T5, human retinoic acid receptor γ (Homo sapiens, UniProt P13631); assay: Competition binding / retinoic acid binding, human retinoic acid receptor γ/BCV (FIG. 1)
T5 construct: made in house
T5 sequence (P13631 1-454): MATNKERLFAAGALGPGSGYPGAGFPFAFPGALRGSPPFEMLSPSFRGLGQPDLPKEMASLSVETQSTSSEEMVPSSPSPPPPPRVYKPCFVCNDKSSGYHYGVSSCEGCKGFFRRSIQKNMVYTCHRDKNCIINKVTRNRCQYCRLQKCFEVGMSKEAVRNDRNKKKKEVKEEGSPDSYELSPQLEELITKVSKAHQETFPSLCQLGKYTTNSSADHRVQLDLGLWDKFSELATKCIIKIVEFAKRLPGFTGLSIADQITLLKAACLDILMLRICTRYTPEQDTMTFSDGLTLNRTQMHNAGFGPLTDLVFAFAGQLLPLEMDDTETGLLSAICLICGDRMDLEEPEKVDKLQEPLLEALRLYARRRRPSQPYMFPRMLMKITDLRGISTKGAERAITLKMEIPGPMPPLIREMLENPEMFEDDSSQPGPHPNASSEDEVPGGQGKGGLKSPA

[7] = test system: DMBA-Induced Rat Mammary Tumors; assay: Effect on progression of DMBA-induced rat mammary tumors; assay type: in vivo; settings: 1 mmol/Kg in diet
From the text: The control rats received DMBA intubation only and AIN-76A rat chow.

## CC1=C(/C=C/C(C)=C/C=C/C(C)=C/C(=O)Nc2ccc(C[C@@H]3O[C@H](C(=O)O)[C@@H](O)[C@H](O)[C@H]3O)cc2)C(C)(C)CCC1 [4-(retinamido)benzyl-C-glucuronide]
β-glucuronidase [1]
  inhibition of β-glucuronidase mediated hydrolysis, in words: slightly more effective than the 4-(retinamido)phenyl-C-glucuronide
  IC50: 236 µM
mRARβ
  inhibition at 1 µM: 82%
mRARα; 1 μM drug, 5 nM [3H]RA
  inhibition at 1 µM: 67%
[2]
  acid hydrolysis (stability): remained essentially intact
MCF-7 cells; Assay 1
  IC50: 6.5 µM
MCF-7 cells
  growth inhibition of MCF-7 cells, in words: exhibit the best growth inhibition of the cells
[3]
  competition with retinoic acid for the receptors, in words: significantly compete with retinoic acid for the receptors
mRARγ
  inhibition at 1 µM: 78%

## CC1=C(/C=C/C(C)=C/C=C/C(C)=C/C(=O)Nc2ccc(C[C@@H]3OC[C@@H](O)[C@H](O)[C@H]3O)cc2)C(C)(C)CCC1 [4-(retinamido)benzyl-C-xyloside]
mRARβ
  inhibition at 1 µM: 3%
mRARα; 1 μM drug, 5 nM [3H]RA
  inhibition at 1 µM: 12%
MCF-7 cells; Assay 2
  IC50: 15 µM
mRARγ
  inhibition at 1 µM: 2%

## CC(=O)OC/C=C(C)/C=C/C=C(C)/C=C/C1=C(C)CCCC1(C)C [retinyl acetate]
cancer
  cancer preventive activity: display cancer preventive activity

## CC1=C(/C=C/C(C)=C/C=C/C(C)=C/C(=O)Nc2ccc(C[C@@H]3O[C@H](CO)[C@@H](O)[C@H](O)[C@H]3O)cc2)C(C)(C)CCC1 [4-(retinamido)benzyl-C-glucoside]
mRARβ
  inhibition at 1 µM: 64%
mRARα; 1 μM drug, 5 nM [3H]RA
  inhibition at 1 µM: 56%
MCF-7 cells; Assay 1
  IC50: 3.4 µM
MCF-7 cells
  growth inhibition of MCF-7 cells, in words: exhibit the best growth inhibition of the cells
[3]
  competition with retinoic acid for the receptors, in words: significantly compete with retinoic acid for the receptors
mRARγ
  inhibition at 1 µM: 77%

## CC1=C(/C=C/C(C)=C/C=C/C(C)=C/C(=O)O[C@@H]2O[C@H](C(=O)O)[C@@H](O)[C@H](O)[C@H]2O)C(C)(C)CCC1 [RAG, retinoyl β-glucuronide, reference compound]
β-glucuronidase [4]
  hydrolysis by β-glucuronidase within twenty minutes: completely hydrolyzed
[5]
  degraded at 2 h: ~50%

## CC1=C(/C=C/C(C)=C/C=C/C(C)=C/C(=O)Nc2ccc([C@@H]3O[C@H](C(=O)O)[C@@H](O)[C@H](O)[C@H]3O)cc2)C(C)(C)CCC1 [4-(retinamido)phenyl-C-glucuronide]
β-glucuronidase [1]
  inhibition of β-glucuronidase mediated hydrolysis, in words: act as inhibitors of β-glucuronidase mediated hydrolysis
  IC50: 267 µM
mRARβ
  inhibition at 1 µM: 47%
mRARα; 1 μM drug, 5 nM [3H]RA
  inhibition at 1 µM: 48%
[2]
  acid hydrolysis (stability): remained essentially intact
MCF-7 cells; Assay 3
  IC50: 50 µM
MCF-7 cells
  growth inhibition of MCF-7 cells, in words: potency consistent with its glucoside analogue
[3]
  competition with retinoic acid for the receptors, in words: significantly compete with retinoic acid for the receptors
mRARγ
  inhibition at 1 µM: 40%

## CC1=C(/C=C/C(C)=C/C=C/C(C)=C/C(=O)Nc2ccc([C@@H]3O[C@H](CO)[C@@H](O)[C@H](O)[C@H]3O)cc2)C(C)(C)CCC1 [4-(retinamido)phenyl-C-glucoside]
MCF-7 cells; Assay 2
  IC50: 27 µM

## CC1=C(/C=C/C(C)=C/C=C/C(C)=C/C(=O)N[C@@H]2O[C@H](CO)[C@@H](O)[C@H](O)[C@H]2O)C(C)(C)CCC1 [1-(B-D-glucopyranosyl) retinamide, 1-(β-D-glucopyranosyl) retinamide]
[6]; 1.3 nM [3H]-retinoic acid
  Ki: 0.71 µM
[6]; vs retinoic acid, FIG. 1
  fold less effective than retinoic acid in competing for [3H]-retinoic acid binding to retinoic acid receptor γ: 1500 fold
[7]
  effect on DMBA-induced mammary tumor development, in words: significantly prolonged the latency period of mammary cancer; also recorded: tumor induction was markedly delayed and reduced; also recorded: greater mammary tumor chemopreventive effect than does retinoic acid; also recorded: inhibit DMBA induced mammary tumor development
[7]; 15 mg DMBA oral
  tumor latency: 64 days
[7]; 110 days post intubation
  tumor incidents: 58%
  tumor number/rat: 0.92 tumors per rat

## CC1=C(/C=C/C(C)=C/C=C/C(C)=C\C(=O)O)C(C)(C)CCC1 [13-cis-retinoic acid, reference compound]
cancer
  cancer preventive activity: display cancer preventive activity
mRARα
  inhibition at 1 µM: 28%
mRARγ
  inhibition at 1 µM: 4%

Reference: US5599953A, “C-glycoside analogues of N-(4-hydroxyphenyl)retinamide-O-glucuronide” (The Ohio State Research Foundation, priority 1995, dated 1997)
